# In patent US10166218B2, “3-(1H-indol-2-yl)-1H-pyrazolo[3,4-C]pyridines and therapeutic uses thereof” (Samumed, LLC, priority 2015, dated 2019):
# pEC50: −log10 of the molar value.
# Key:
# Assay type in all cases: cell-based
# [1] = system: Wnt activity (Sp5-Luc reporter, TCF/LEF binding sites) in SW480 colon carcinoma cells; assay: Screening assay for Wnt activity: Sp5-Luc reporter gene assay in stably transduced SW480 cells; details: Homo sapiens; for pEC50: overnight incubation; for inhibition at 10 µM: read-out: percent inhibition at 10 μM (given for EC50 of >10 μM)
# Outline: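 Luminescence (BrightGlo) was normalised to DMSO-only wells and fitted with a four-parameter variable-slope model for EC50; beyond 10 μM, % inhibition at 10 μM is given. Stable Sp5-Luc SW480 reporter cells, 4,000/well in 1% FBS, were exposed overnight at 37 °C to compounds, top 10 μM, 1:3 dilutions, 0.1% DMSO.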
# SW480 colon cancer cells = assay: Cell viability assay (CellTiter-Blue) in SW480 colon cancer cells; details: Homo sapiens, 96 h, four days; for inhibition at 10 µM: read-out: percent inhibition at 10 μM (given for EC50 of >10 μM); for pEC50: CellTiter-Blue
# Outline: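 SW480 cells (~2×10^3 per well) were exposed to compound for four days at 37 °C/5% CO2, using 8-point 1:3 dilutions from 10 μM to 0.0045 μM in duplicate. Viability was read by resazurin reduction (CellTiter-Blue, ~3 h, Ex 560/Em 590 nm). EC50 came from non-linear regression; above 10 μM, percent inhibition at 10 μM is given.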
# IL-6 (THP-1 cells) = assay: Inhibition of IL-6 in LPS-stimulated THP-1 human monocyte cells (HTRF); details: for pEC50: inhibition of IL-6 in LPS-stimulated THP-1 cells, HTRF, 10-point dose-response starting from 10 μM; for inhibition at 10 µM: IL-6 assay in LPS-stimulated THP-1 cells, given only where EC50 >10 μM, meaning not given (top concentration 10 μM), read-out: percentage given in parentheses after EC50 >10
# Outline: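 THP-1 cells, serum-reduced (1% FBS) for 24 h, were preincubated with compound (10-point 1:3 series from 10 μM, 0.1% DMSO) for 2 h, then stimulated with 500 ng/mL LPS for 22 h at 37° C. IL-6 was read by HTRF (665/620 nm ratio) and normalized to DMSO. EC50 from four-parameter fit; % inhibition at 10 μM given if EC50 >10 μM.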
Structure (SMILES),pEC50 [1],inhibition at 10 µM (SW480 colon cancer cells) [%],pEC50 (SW480 colon cancer cells),pEC50 (IL-6 (THP-1 cells)),inhibition at 10 µM [1] [%],inhibition at 10 µM (IL-6 (THP-1 cells)) [%]
"c1cnc2cc(-c3n[nH]c4cnc(-c5cncc(CNCC6CCCC6)c5)cc34)[nH]c2c1 [Compound 529, 1-(5-(3-(1H-Pyrrolo[3,2-b]pyridin-2-yl)-1H-pyrazolo[3,4-c]pyridin-5-yl)pyridin-3-yl)-N-(cyclopentylmethyl)methanamine]",5.64,0,< 5.00,6.00,–,–
"Fc1ccccc1-c1cccc2[nH]c(-c3n[nH]c4cnc(-c5cn[nH]c5)cc34)cc12 [Compound 567, 3-(4-(2-Fluorophenyl)-1H-indol-2-yl)-5-(1H-pyrazol-4-yl)-1H-pyrazolo[3,4-c]pyridine]",6.69,46.1,< 5.00,6.36,–,–
"CN(C)CCOc1cncc(-c2cc3c(-c4cc5c(-c6cccnc6)cccc5[nH]4)n[nH]c3cn2)c1 [Compound 591, N,N-Dimethyl-2-((5-(3-(4-(pyridin-3-yl)-1H-indol-2-yl)-1H-pyrazolo[3,4-c]pyridin-5-yl)pyridin-3-yl)oxy)ethan-1-amine]",5.56,–,5.56,5.84,–,–
"Cn1cc(-c2cc3c(-c4cc5c(-c6ccncc6)cccc5[nH]4)n[nH]c3cn2)cn1 [Compound 600, 5-(1-Methyl-1H-pyrazol-4-yl)-3-(4-(pyridin-4-yl)-1H-indol-2-yl)-1H-pyrazolo[3,4-c]pyridine]",7.57,45.1,< 5.00,7.36,–,–
"O=C(CC1CCNCC1)Nc1cncc(-c2cc3c(-c4cc5c(-c6ccccn6)cccc5[nH]4)n[nH]c3cn2)c1 [Compound 621, 2-(Piperidin-4-yl)-N-(5-(3-(4-(pyridin-2-yl)-1H-indol-2-yl)-1H-pyrazolo[3,4-c]pyridin-5-yl)pyridin-3-yl)acetamide]",< 5.00,29.3,< 5.00,5.78,46.2,–
"c1cc(N2CCCCC2)c2cc(-c3n[nH]c4cnc(-c5cncc(OC6CCCCC6)c5)cc34)[nH]c2c1 [Compound 635, 5-(5-(Cyclohexyloxy)pyridin-3-yl)-3-(4-(piperidin-1-yl)-1H-indol-2-yl)-1H-pyrazolo[3,4-c]pyridine]",5.42,26.8,< 5.00,< 5.00,–,0
"c1cc(-c2ccoc2)c2cc(-c3n[nH]c4cnc(-c5cn[nH]c5)cc34)[nH]c2c1 [Compound 711, 3-(4-(Furan-3-yl)-1H-indol-2-yl)-5-(1H-pyrazol-4-yl)-1H-pyrazolo[3,4-c]pyridine]",6.69,45.1,< 5.00,< 5.00,–,0
"c1csc(-c2cccc3[nH]c(-c4n[nH]c5cnc(C6CCNCC6)cc45)cc23)c1 [Compound 725, 5-(Piperidin-4-yl)-3-(4-(thiophen-2-yl)-1H-indol-2-yl)-1H-pyrazolo[3,4-c]pyridine]",< 5.00,8.1,< 5.00,< 5.00,25.9,45.4
"CN(C)CCNc1cc(F)cc(-c2cccc3[nH]c(-c4n[nH]c5cnc(-c6cncc(O)c6)cc45)cc23)c1 [Compound 817, 5-(3-(4-(3-((2-(Dimethylamino)ethyl)amino)-5-fluorophenyl)-1H-indol-2-yl)-1H-pyrazolo[3,4-c]pyridin-5-yl)pyridin-3-ol]",6.39,–,5.97,6.63,–,–
"Cn1cc(-c2cc3c(-c4cc5ncccc5[nH]4)n[nH]c3cn2)cn1 [Compound 1022, 5-(1-Methyl-1H-pyrazol-4-yl)-3-(1H-pyrrolo[3,2-b]pyridin-2-yl)-1H-pyrazolo[3,4-c]pyridine]",7.33,–,5.59,6.46,–,–
"CN(C)CCOc1cncc(-c2cc3c(-c4cc5ncccc5[nH]4)n[nH]c3cn2)c1 [Compound 1029, 2-((5-(3-(1H-Pyrrolo[3,2-b]pyridin-2-yl)-1H-pyrazolo[3,4-c]pyridin-5-yl)pyridin-3-yl)oxy)-N,N-dimethylethan-1-amine]",5.51,17.1,< 5.00,5.61,–,–
